In US9695200B2, “Heterocyclic ITK inhibitors for treating inflammation and cancer” (Confluence Life Sciences, Inc., priority 2015, dated 2017):
Read-outs that look alike come from different tables or passages of the source.

How the values were obtained:
[1] = tested on: phospho-PLCγ1 in Jurkat cells; assay: ITK target modulation PLC-γ assay (phospho-PLCγ1, αCD3-stimulated Jurkat cells); type: cell-based, human; conditions: 1 hour compound incubation, αCD3 Dynabeads stimulation 8 minutes, MSD phospho-PLCγ1, read-out: PLC-γ Inhibition IC50
Experimental: Jurkat cells, an immortalized human T-lymphocyte cell line, were maintained in RPMI media, 10% FBS, 1% pen/strep/glutamine (growth media). Cells were plated in growth media plus 50 μM β-mercaptoethanol at 400,000 cells per well of a 96 well plate.
Compounds were serially diluted into DMSO, and then into media to concentrations 10× that of the final assay concentration. Compounds were then added to the cells with the final assay DMSO concentration being 0.1%. Cells were incubated for 1 hour at 37° C.
Following compound incubation, αCD3 Dynabeads were added at 1 bead/cell to each assay well and incubated at 37° C. for 7 minutes. Unstimulated control wells received media only. The plate was then placed on a 96-well magnetic plate for an additional 60 seconds (total assay stimulation time equals 8 minutes). The plate was then dumped and gently patted dry on a paper towel. 50 μl of complete Meso Scale Discovery (MSD) Lysis buffer was then added to each well. Samples were assayed for phospho-PLCγ1 using Meso Scale Discovery technology.
The assay stimulation time has been optimized for detection of Itk kinase-mediated phosphorylation of PLCγ1. The timing and detection reagents for this assay could be adjusted to capture phosphorylation events upstream (e.g., phospho-ZAP70) or downstream of the Itk/PLCγ1 node, provided the appropriate phospho-specific antibodies are available for building of an MSD assay.

ITK = ITK (Homo sapiens (Human), UniProt Q08881); assay: ITK inhibitor binding potency (LanthaScreen competitive binding assay); conditions: TR-FRET tracer-236 displacement, 10 nM ITK; pre-incubation condition not given; read-out: ITK Inhibition IC50
Chain of ITK (Q08881 whole entry): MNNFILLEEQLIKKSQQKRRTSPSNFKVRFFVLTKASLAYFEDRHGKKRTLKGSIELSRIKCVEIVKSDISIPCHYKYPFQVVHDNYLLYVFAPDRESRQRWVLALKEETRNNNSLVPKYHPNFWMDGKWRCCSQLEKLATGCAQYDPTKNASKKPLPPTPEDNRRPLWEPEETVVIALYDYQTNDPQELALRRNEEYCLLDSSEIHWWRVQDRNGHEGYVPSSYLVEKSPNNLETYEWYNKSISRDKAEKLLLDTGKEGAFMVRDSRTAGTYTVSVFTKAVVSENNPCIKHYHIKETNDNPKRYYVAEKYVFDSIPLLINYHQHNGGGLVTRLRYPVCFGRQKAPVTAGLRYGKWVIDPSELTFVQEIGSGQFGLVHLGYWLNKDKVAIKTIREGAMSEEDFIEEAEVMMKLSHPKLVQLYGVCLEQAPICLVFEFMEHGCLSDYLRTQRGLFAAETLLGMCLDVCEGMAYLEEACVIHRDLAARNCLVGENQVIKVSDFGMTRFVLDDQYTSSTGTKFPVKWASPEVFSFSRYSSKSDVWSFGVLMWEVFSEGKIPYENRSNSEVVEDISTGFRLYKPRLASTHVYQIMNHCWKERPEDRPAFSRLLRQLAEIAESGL
Text: The ability of candidate compounds to interact with ITK is quantitated by a competitive binding assay using the LanthaScreen technology developed by Life Technologies. This assay is based on the binding of a proprietary, Alexa Fluor® 647-labeled, ATP-competitive kinase inhibitor (kinase tracer-236) to the ITK expression construct in the presence of a Europium-conjugated antibody, resulting in a FRET (fluorescence resonance energy transfer) signal. Displacement of the kinase tracer by compound results in a lower emission ratio upon excitation of the Europium chelate. Candidate compounds are designed as potential irreversible inhibitors of ITK, capable of ligating to an active site cysteine residue resulting in time dependent covalent binding. The time dependent nature of irreversible inhibition is investigated by performing the binding assay with and without a pre-incubation of compound and ITK. […] The inhibitory potency of candidate compounds is measured in 20 mM HEPES pH 7.5, 10 mM MgCl2, 0.01% BSA, 0.0005% Tween-20, and 2% DMSO in the presence of 10 nM ITK, 2 nM Eu-anti-GST antibody, and 50 nM kinase tracer-236 using a 384-well plate format. Background signal is defined in the absence of ITK and uninhibited signal is defined in the presence of vehicle (2% DMSO) alone. Compounds were evaluated in an 11 point dose-response ranging from 20 uM to 0.34 nM. The binding assays are performed under two preincubation conditions to evaluate time dependence of inhibition. For the pre-incubation assay, ITK and Eu-anti-GST antibody are pre-incubated with compound or vehicle for two hours prior to the addition of kinase tracer. The non-preincubated assay is run under conditions where ITK and Eu-anti-GST antibody are added to a mixture of compound and kinase tracer. IC50 values of compounds are determined using a 4 parameter logistical fit of emission ratio as a function of the concentration of compound.

Compound	IC50 ([1]; Homo sapiens)	IC50 (ITK)	IC50 [1]
CN(C)C/C=C/C(=O)Nc1cccc(-c2cnc3[nH]cc(-c4cccnc4)c3c2)c1 [Example 84, (E)-4-(dimethylamino)-N-(3-(3-(pyridin-3-yl)-1H-pyrrolo[2,3-b]pyridin-5-yl)phenyl)but-2-enamide]	1 to 5 µM	≤ 1000 nM	–
COc1cc(-c2c[nH]c3ncc(-c4cccc(NC(=O)/C=C/CN5CCOCC5)c4)cc23)ccn1 [Example 38, (E)-N-(3-(3-(2-methoxypyridin-4-yl)-1H-pyrrolo[2,3-b]pyridin-5-yl)phenyl)-4-morpholinobut-2-enamide]	> 5 µM	≤ 1000 nM	–
C=CC(=O)N(C)c1cccc(-c2cnc3[nH]cc(-c4ccnc(OC)c4)c3c2)c1 [Example 21, N-(3-(3-(2-methoxypyridin-4-yl)-1H-pyrrolo[2,3-b]pyridin-5-yl)phenyl)-N-methylacrylamide]	1 to 5 µM	≤ 1000 nM	–
C=CC(=O)Nc1cc(-c2cnc3[nH]cc(-c4ccnc(OC)c4)c3c2)cc(N2CCOCC2)n1 [Example 41, N-(4-(3-(2-methoxypyridin-4-yl)-1H-pyrrolo[2,3-b]pyridin-5-yl)-6-morpholinopyri-din-2-yl)acrylamide]	< 1 µM	≤ 1000 nM	–
C=CC(=O)Nc1cccc(-c2cnc3[nH]cc(-c4c[nH]c(=O)c5ccccc45)c3c2)c1 [Example 69, N-(3-(3-(1-oxo-1,2-dihydroisoquino-lin-4-yl)-1H-pyrrolo[2,3-b]pyridin-5-yl)phenyl)acryl-amide]	> 5 µM	≤ 1000 nM	–
N-(6-methoxy- 4-(3-(2- methoxypyridin- 4-yl)-1H- pyrrolo[2,3- b]pyridin-5- yl)pyridin-2- yl)methacryl- amide [Example 68]	–	> 1000 nM	> 5 µM
C=C(C)C(=O)Nc1cccc(-c2cnc3[nH]cc(-c4cccnc4)c3c2)c1 [Example 85, N-(3-(3-(pyridin-3-yl)-1H-pyrrolo[2,3-b]pyridin-5-yl)phenyl)meth-acrylamide]	> 5 µM	≤ 1000 nM	–
C=CC(=O)Nc1cccc(-c2cnc3[nH]cc(-c4cn(CC5CC5)c(=O)c5ccccc45)c3c2)c1 [Example 86, N-(3-(3-(2-(cyclopropyl-methyl)-1-oxo-1,2-dihydroisoquino-lin-4-yl)-1H-pyrrolo[2,3-b]pyridin-5-yl)phenyl)acryl-amide]	> 5 µM	> 1000 nM	–
C=CC(=O)Nc1cncc(-c2cnc3[nH]cc(-c4ccncc4)c3c2)c1 [Example 16, N-(5-(3-(pyridin-4-yl)-1H-pyrrolo[2,3-b]pyridin-5-yl)pyridin-3-yl)acrylamide]	–	≤ 1000 nM	–
C=CC(=O)NC1CN(c2cnc3[nH]cc(-c4ccnc(OC)c4)c3c2)C1 [Example 2, N-(1-(3-(2-Methoxypyridin-4-yl)-1H-pyrrolo[2,3-b]pyridin-5-yl)azetidin-3-yl)acrylamide]	–	≤ 1000 nM	–
C=CC(=O)Nc1cc(-c2cnc3[nH]cc(-c4ccnc(OC)c4)c3c2)cc(OC)n1 [Example 40, N-(6-methoxy-4-(3-(2-methoxypyridin-4-yl)-1H-pyrrolo[2,3-b]pyridin-5-yl)pyridin-2-yl)acrylamide]	–	≤ 1000 nM	–
C=CC(=O)Nc1cccc(-c2cnc3[nH]cc(-c4ccncc4)c3c2)c1 [Example 7, N-(3-(3-(pyridin-4-yl)-1H-pyrrolo[2,3-b]pyridin-5-yl)phenyl)acrylamide]	–	> 1000 nM	–
C=CC(=O)Nc1cccc(-c2cnc3[nH]cc(-c4ccnc(F)c4)c3c2)c1 [Example 25, N-(3-(3-(2-fluoropyridin-4-yl)-1H-pyrrolo[2,3-b]pyridin-5-yl)phenyl)acryl-amide]	< 1 µM	–	–
C=C(C)C(=O)Nc1cc(-c2cnc3[nH]cc(-c4ccnc(OC)c4)c3c2)cc(-c2cnn(C)c2)n1 [Example 70, N-(4-(3-(2-methoxypyridin-4-yl)-1H-pyrrolo[2,3-b]pyridin-5-yl)-6-(1-methyl-1H-pyrazol-4-yl)pyridin-2-yl)methacryl-amide]	> 5 µM	–	–
C=CC(=O)NC1CN(c2cnc3[nH]cc(-c4ccc(OC)nc4)c3c2)C1 [Example 3, N-(1-(3-(6-Methoxypyridin-3-yl)-1H-pyrrolo[2,3-b]pyridin-5-yl)azetidin-3-yl)acrylamide]	–	≤ 1000 nM	–
C=CC(=O)Nc1cccc(-c2cnc3[nH]cc(-c4ccc(F)nc4)c3c2)c1 [Example 46, N-(3-(3-(6-fluoropyridin-3-yl)-1H-pyrrolo[2,3-b]pyridin-5-yl)phenyl)acryl-amide]	< 1 µM	–	–
C=CC(=O)Nc1cccc(-c2cnc3[nH]cc(-c4cc(OC)ncc4C)c3c2)c1 [Example 79, N-(3-(3-(2-methoxy-5-methylpyridin-4-yl)-1H-pyrrolo[2,3-b]pyridin-5-yl)phenyl)acryl-amide]	> 5 µM	–	–
C=CC(=O)Nc1cc(-c2cnc3[nH]cc(-c4ccc(F)nc4)c3c2)cc(C(F)(F)F)c1 [Example 57, N-(3-(3-(6-fluoropyridin-3-yl)-1H-pyrrolo[2,3-b]pyridin-5-yl)-5-(trifluoromethyl)phenyl)acryl-amide]	< 1 µM	–	–
C=CC(=O)Nc1cncc(-c2cnc3[nH]cc(-c4ccnc(F)c4)c3c2)c1 [Example 27, N-(5-(3-(2-fluoropyridin-4-yl)-1H-pyrrolo[2,3-b]pyridin-5-yl)pyridin-3-yl)acrylamide]	–	≤ 1000 nM	–
C=CC(=O)Nc1cccc(-c2cnc3[nH]cc(-c4ccnc(C)c4)c3c2)c1 [Example 26, N-(3-(3-(2-methylpyridin-4-yl)-1H-pyrrolo[2,3-b]pyridin-5-yl)phenyl)acryl-amide]	< 1 µM	–	–
C=CC(=O)Nc1cccc(-c2cnc3[nH]cc(-c4cn(CC5CC5)c(=O)c5[nH]ccc45)c3c2)c1 [Example 88, N-(3-(3-(6-(cyclopropyl-methyl)-7-oxo-6,7-dihydro-1H-pyrrolo[2,3-c]pyridin-4-yl)-1H-pyrrolo[2,3-b]pyridin-5-yl)phenyl)acryl-amide]	1 to 5 µM	–	–
C=CC(=O)Nc1cccc(-c2cnc3[nH]cc(-c4cc(C)nc(OC)c4)c3c2)c1 [Example 29, N-(3-(3-(2-methoxy-6-methylpyridin-4-yl)-1H-pyrrolo[2,3-b]pyridin-5-yl)phenyl)acryl-amide]	1 to 5 µM	–	–
C=CC(=O)Nc1cccc(-c2cnc3[nH]cc(-c4cccc5occc45)c3c2)c1 [Example 82, N-(3-(3-(benzofuran-4-yl)-1H-pyrrolo[2,3-b]pyridin-5-yl)phenyl)acryl-amide]	> 5 µM	–	–
C=CC(=O)Nc1cccc(-c2cnc3[nH]cc(-c4cccc5cnccc45)c3c2)c1 [Example 55, N-(3-(3-(isoquinolin-5-yl)-1H-pyrrolo[2,3-b]pyridin-5-yl)phenyl)acryl-amide]	> 5 µM	–	–
C=CC(=O)Nc1cccc(-c2cnc3[nH]cc(-c4cccc5[nH]ccc45)c3c2)c1 [Example 71, N-(3-(3-(1H-indol-4-yl)-1H-pyrrolo[2,3-b]pyridin-5-yl)phenyl)acryl-amide]	1 to 5 µM	–	–
N#CN[C@H]1CCN(c2cnc3[nH]cc(-c4ccncc4)c3c2)C1 [Example 18, (S)-N-(1-(3-(pyridin-4-yl)-1H-pyrrolo[2,3-b]pyridin-5-yl)pyrrolidin-3-yl)cyanamide]	–	≤ 1000 nM	–
C=CC(=O)NC1CN(c2cnc3[nH]cc(-c4ccnc(C#N)c4)c3c2)C1 [Example 5, N-(1-(3-(2-Cyanopyridin-4-yl)-1H-pyrrolo[2,3-b]pyridin-5-yl)azetidin-3-yl)acrylamide]	> 5 µM	–	–
